Tests used:
[1] = Cytotoxicity, EZ4U Cell Proliferation and Cytotoxicity Assay, HeLa; format: cell-based; conditions: human, HeLa cells, cervical cancer HeLa
Procedure: (§1) The cytotoxicity of compounds was investigated using HeLa (cervical cancer), SW837 and HCT-116 (colon cancers) cell lines, and the results are shown in Table 1 and Figure S2 in the Supplementary Materials. […] In general, the HeLa cell line was less sensitive to the inhibitors than the HCT-116 and SW837 cells.
(§2) The human cervical cancer HeLa cells were grown in Iscove’s modified Dulbecco’s medium (IMDM) with 40 μg/mL gentamicin, 50 IU/mL penicillin, 50 μg/mL streptomycin (MP Biomedicals), and 10% of fetal bovine serum (Biolot) in a 5% CO2 atmosphere. Human colon adenocarcinoma HCT-116, rectum adenocarcinoma SW837, and human embryo kidney HEK293A cell lines were cultured in DMEM medium (Invitrogen) supplemented with 10% fetal bovine serum (FBS) (Invitrogen), penicillin (100 units/mL), and streptomycin (100 μg/mL), at 37 °C, 5% CO2 in a humid atmosphere. After the formation of a 30–50% monolayer, the tested compounds were added to the medium. The volume of the added reagents was 1/100 of the total volume of the culture medium, and the amount of DMSO was 1% of the final volume. Control cells were grown in the presence of 1% DMSO. The cell culture was monitored for 3 days.
(§3) The cytotoxicity of the compounds to HeLa and HEK293A cell lines was examined using the EZ4U Cell Proliferation and Cytotoxicity Assay (Biomedica, Austria), according to the manufacturer’s protocols.

[2] = Cytotoxicity, MTT test, HCT-116; format: cell-based; conditions: human, HCT-116 cells; colorectal HCT-116, 72 h MTT
Procedure: as §1, §2
(§4) The medium was removed, and the dark blue crystals of formazan were dissolved in 100 μL of isopropanol. The absorbance at 570 nm (peak) and 620 nm (baseline) was determined using a microplate reader Multiscan FC (Thermo Fisher Scientific Corporation). All concentrations were performed in triplicate. The values are given as mean ± standard deviation (S.D.) values, and all measurements were repeated three times.

HeLa cells = assay: Sensitizing of HeLa cells to topotecan by Tdp1 inhibitors; format: cell-based, human; conditions: for combination index (CI) with topotecan: HeLa, different concentrations of topotecan, CompuSyn; for HeLa CC50 of topotecan with Tdp1 inhibitor: human, 3 days, 5 µM
Procedure: (§5) The potential for sensitizing the cancer cell lines to topotecan using the Tdp1 inhibitors was investigated using the MTT assay. Neutralizing the enzymatic activity of Tdp1 by blocking access to its catalytic site using a small molecule should sensitize the cytotoxic potential of topotecan, since the complex of Top1 with DNA cannot be unraveled. […] Nontoxic concentrations of the adamantane derivatives (5 μM) were used for the HeLa cell line; the dose response for topotecan was measured and the corresponding CC50 values were derived, and the results are shown in Figure 4 for 20c and in Table 2 for all the derivatives.
(§6) For HeLa cells, increased cytotoxicity was seen when the adamantanes and topotecan were combined. […] The combination index (CI) for different concentrations of topotecan and 20c at 5 μM was in the range 0.49–0.82, and at 10 μM of 20c, it was 0.23–0.78. This indicates a synergistic effect of topotecan and 20c. The CI values were calculated with the CompuSyn version 1.0 software. For the HCT-116 cells, the synergistic effects of the compounds were different than for the HeLa cells. […] The CI plot at a different fraction affected (Fa) was determined for topotecan (5, 15, 150, 500 and 1500 nM) and 20g (1, 3, 10, 20 μM). The CI values for most of the combinations correspond to a synergistic effect (CI < 1, see Figure S3 in the Supplementary Materials).
as §2, §3

[3] = Cytotoxicity, MTT test, SW837; format: cell-based; conditions: human, SW837 cells; colorectal SW837, 72 h MTT
Procedure: as §1, §2, §4

HEK293A cells = assay: Cytotoxicity on noncancerous cell line HEK293A (EZ4U); format: cell-based, human; conditions: concentrations up to 30 μM; data not shown
Procedure: as §1, §2, §3

HCT-116 cells = assay: Sensitizing of HCT-116 cells to topotecan by Tdp1 inhibitors; format: cell-based, human; conditions: for HCT116 CC50 of topotecan with Tdp1 inhibitor: human, 72 h
Procedure: as §5, §6, §2, §4

Tdp1 = Tdp1 (Homo sapiens, UniProt Q9NUW8); assay: Tdp1 cleavage activity, fluorophore quencher-coupled DNA-biosensor, real-time; format: biochemical; set-up: inferred from the pET 16B vector and Ni-chelating resin purification; made in house; conditions: recombinant Tdp1 1.5 nM, 50 nM biosensor; read-out: IC50 (Tdp1 activity inhibition at 50%)
Chain of Tdp1 (Q9NUW8 whole entry): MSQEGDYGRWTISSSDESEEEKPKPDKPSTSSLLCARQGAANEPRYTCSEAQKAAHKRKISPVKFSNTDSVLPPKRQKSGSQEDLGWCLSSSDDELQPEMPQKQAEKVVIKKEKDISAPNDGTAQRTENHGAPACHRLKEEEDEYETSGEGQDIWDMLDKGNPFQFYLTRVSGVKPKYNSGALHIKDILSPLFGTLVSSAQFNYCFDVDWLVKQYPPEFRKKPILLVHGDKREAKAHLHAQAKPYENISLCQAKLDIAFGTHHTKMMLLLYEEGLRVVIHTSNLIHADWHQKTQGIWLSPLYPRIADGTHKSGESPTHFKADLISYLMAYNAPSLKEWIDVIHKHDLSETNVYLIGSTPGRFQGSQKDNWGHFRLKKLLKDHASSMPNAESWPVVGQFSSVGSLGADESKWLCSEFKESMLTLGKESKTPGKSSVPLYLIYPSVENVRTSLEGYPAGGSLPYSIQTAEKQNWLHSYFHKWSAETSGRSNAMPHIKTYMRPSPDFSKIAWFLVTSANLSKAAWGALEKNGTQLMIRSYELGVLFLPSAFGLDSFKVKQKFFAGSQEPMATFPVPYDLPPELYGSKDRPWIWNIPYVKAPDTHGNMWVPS
Procedure: The recombinant Tdp1 was purified to homogeneity by chromatography on Ni-chelating resin and phosphocellulose P11 as described, using plasmid pET 16B-Tdp1, kindly provided by Dr. K.W. Caldecott (University of Sussex, United Kingdom). Tdp1 activity was detected as described in the work. Briefly, we measured the fluorescence intensity after quencher removal from a fluorophore quencher–coupled DNA oligonucleotide catalyzed by Tdp1. The reaction was carried out at different concentrations of inhibitors. The control samples contained 1% DMSO. The reaction mixtures contained Tdp1 buffer (50 mM Tris-HCl pH 8.0, 50 mM NaCl, and 7 mM β-mercaptoethanol), 50 nM biosensor, and an inhibitor being tested. The reaction was started by the addition of purified Tdp1 (1.5 nM). The biosensor (5′-[FAM] AAC GTC AGGGTC TTC C [BHQ]-3′) was synthesized in the Laboratory of Biomedical Chemistry at the Institute of Chemical Biology and Fundamental Medicine (Novosibirsk, Russia).
The reactions were incubated on a POLARstar OPTIMA fluorimeter (BMG LAB-TECH, GmbH) to measure fluorescence every 55 s (ex. 485 nm/em. 520 nm) during the linear phase (here, data are from minute 0 to minute 8). The values of IC50 were determined using a six-point concentration response curve in a minimum of three independent experiments, and were calculated using MARS Data Analysis 2.0 (BMG LABTECH).

Row | SMILES | CC50 at 3 days [1] | CC50 at 72 h [2] | potentiation of the cytotoxic potency of topotecan (HeLa cells) | combination index (CI) with topotecan (HeLa cells; inhibitor at 5 μM) | combination index (CI) with topotecan (HeLa cells; inhibitor at 10 μM) | HeLa CC50 of topotecan with Tdp1 inhibitor (HeLa cells) | CC50 at 72 h [3] | effect on cell viability, HEK293A (HEK293A cells) | HCT116 CC50 of topotecan with Tdp1 inhibitor (HCT-116 cells; 15 µM) | IC50 (Tdp1) | combination index (CI) with topotecan (HCT-116 cells; HCT-116, topotecan 5-1500 nM, inhibitor 1, 3, 10, 20 μM, most of the combinations) | HCT116 CC50 of topotecan with Tdp1 inhibitor (HCT-116 cells; 20 µM)
1 | CC(C)=CCC/C(C)=C/CSc1n[nH]c(C23CC4CC(CC(C4)C2)C3)n1 [20c, 5-(Adamantan-1-yl)-3-(((E)-3,7-dimethylocta-2,6-dien-1-yl)thio)-1H-1,2,4-triazole] | 64 ± 6 µM | 16 ± 7 µM | 3 × | 0.49–0.82 | 0.23–0.78 | 1.9 µM | 41 ± 6 µM | no effect on cell viability | 460.0 (15) nM | 5.3 ± 1.7 µM |  | 
2 | CC1(C)[C@H]2CC=C(CCSc3n[nH]c(C45CC6CC(CC(C6)C4)C5)n3)[C@@H]1C2 [20g, 5-(Adamantan-1-yl)-3-((2-((1R,5S)-6,6-dimethylbicyclo[3.1.1]hept-2-en-2-yl)ethyl)thio)-1H-1,2,4-triazole] | 74 ± 17 µM | 34 ± 6 µM |  |  |  | 2.6 µM | 40 ± 4 µM | no effect on cell viability |  | 0.57 ± 0.14 µM | < 1 | 235.8 (20) nM
